Data from doi:10.1101/2025.03.30.646192v1 (biorxiv, 2025).
Read-outs that look alike come from different tables or passages of the source.

Tests used:
[1] = target: T1, D2R (D2 dopamine receptor; HA-hDRD2-SmBiT) (Homo sapiens, UniProt P14416); test: competition with [3H]-raclopride, membranes
[2] = target: T1, D2R (D2 dopamine receptor; HA-hDRD2-SmBiT); test: competition with [3H]-raclopride, membranes; remark: listed apart in the source

T1 sequence (P14416 whole entry): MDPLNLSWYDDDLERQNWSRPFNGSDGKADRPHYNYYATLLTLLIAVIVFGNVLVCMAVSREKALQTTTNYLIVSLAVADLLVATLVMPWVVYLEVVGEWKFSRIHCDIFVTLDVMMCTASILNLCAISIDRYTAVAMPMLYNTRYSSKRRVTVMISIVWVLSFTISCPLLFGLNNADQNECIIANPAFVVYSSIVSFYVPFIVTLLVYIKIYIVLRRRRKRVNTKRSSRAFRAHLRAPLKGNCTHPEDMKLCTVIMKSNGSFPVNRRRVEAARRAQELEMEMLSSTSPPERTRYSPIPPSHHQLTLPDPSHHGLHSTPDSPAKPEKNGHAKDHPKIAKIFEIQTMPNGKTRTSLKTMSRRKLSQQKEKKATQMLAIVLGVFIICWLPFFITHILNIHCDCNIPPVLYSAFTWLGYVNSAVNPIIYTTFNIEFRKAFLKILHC

| Structure (SMILES) | Ki [1] | other results |
| --- | --- | --- |
| CNC[C@H](O)c1ccc(O)c(O)c1 [adrenaline] | 7.08 µM | – |
| NCC(O)c1ccccc1 (stereo not drawn) [hydroxyphenethylamine] | 195 µM | – |
| NCCc1cccc(O)c1 [m-tyramine] | – | Ki [2]: 1.86 µM |
| CNCCc1ccc(O)c(O)c1 [methyldopamine] | 0.0603 µM | – |
| CNCCc1ccccc1 [n-methyl-phenetylamine] | 17 µM | – |
| NC[C@H](O)c1ccc(O)c(O)c1 [noradrenaline] | – | Ki [2]: 9.55 µM |
| NCC(O)c1cccc(O)c1 (stereo not drawn) [norphenylephrine] | 17 µM | – |
| NC[C@H](O)c1ccc(O)cc1 [octopamine] | 347 ± 60.1 µM | – |
| NCCc1ccc(O)cc1 [p-tyramine] | – | Ki [2]: 77.6 µM |
| NCCc1ccccc1 [phenetylamine] | – | Ki ([1]; pH 7.4, RT, 10 mM MgCl2, orthosteric): 4.73 ± 0.52 pKi |
| CNC[C@H](O)c1cccc(O)c1 [phenhyleprine] | 15.1 µM | – |
| CNCC(O)c1ccc(O)cc1 (stereo not drawn) [synephrine] | 87.1 µM | – |
